Experimental data: patent US20110165594A1, “SYSTEMIC MARKERS FOR ASTHMA AND ANALOGOUS DISEASES” (THE CLEVELAND CLINIC FOUNDATION, priority 2005, published 2011)

Legend:
Type in all cases: cell-based, human
[1] = system: SOD; assay: SOD activity (rate of cytochrome c reduction) in BET1A cells
Method: Cell Culture. BET1A, a human bronchial epithelial cell line, was cultured in serum-free Lechner and […] medium (LHC-8, Biofluids, Inc., Rockville, Md.) with additives 0.33 nM retinoic acid, […] epinephrine and the antibiotic combination, 1% penicillin/streptomycin, on plates pre-coated with coating media containing 29 μg/ml collagen (Vitrogen: Collagen Corp., Palo Alto, Calif.), 10 μg/ml bovine serum albumin (Biofluids, Rockville, Md.), and 10 μg/ml fibronectin (Calbiochem, La Jolla, Calif.) for 5 min. HAEC obtained by bronchial brushing were cultured in serum-free Lechner and […] media (LHC8) on plates pre-coated with coating media ([…], et al., Cancer Res 1988, 48:1904-1909). […] T. Baker Inc, […], et al., FASEB J 2001, 15:70-78), or hydrogen peroxide (Sigma, St. Louis, Mo.) in a dose and time dependent manner. 293T cells, a clone of 293 (human embryonic kidney fibroblast cells) that expresses the Simian virus 40 large-T antigen, were maintained in DMEM (Invitrogen) with 10% FCS. Antioxidant assays. Bronchial epithelial cells (BET1A) exposed to 5 µM 2-ME for 30 min to 24 h, or serum of asthmatic individuals, were assayed for glutathione (GSH), glutathione peroxidase (GPx), catalase, and SOD activity. SOD activity was determined by the rate of reduction of cytochrome c, with one unit (U) of SOD activity defined as the amount of SOD required to inhibit the rate of cytochrome c reduction by 50% (Nebot C, et al., Anal Biochem 1993, 214:442-451). The final reaction volume was 3 ml and included 50 mM potassium phosphate buffer, […] cytochrome c, 0.05 mM xanthine, and a 0.1 mM EDTA solution. Xanthine oxidase (Sigma, St Louis, Mo.) was added at a concentration sufficient to induce a 0.020 per minute change in absorbance at 550 nm. GSH levels were measured as previously described (Comhair S A, et al., Am J Respir Crit Care Med 1999, 159:1824-1829).

[2] = system: BET1A cells; assay: Apoptosis detection by Annexin V binding
Method: Cell Culture. BET1A, a human bronchial epithelial cell line, was cultured in serum-free Lechner and […] medium (LHC-8, Biofluids, Inc., Rockville, Md.) with additives 0.33 nM retinoic acid, […] epinephrine and the antibiotic combination, 1% penicillin/streptomycin, on plates pre-coated with coating media containing 29 μg/ml collagen (Vitrogen: Collagen Corp., Palo Alto, Calif.), 10 μg/ml bovine serum albumin (Biofluids, Rockville, Md.), and 10 μg/ml fibronectin (Calbiochem, La Jolla, Calif.) for 5 min. HAEC obtained by bronchial brushing were cultured in serum-free Lechner and […] media (LHC8) on plates pre-coated with coating media ([…], et al., Cancer Res 1988, 48:1904-1909). […] T. Baker Inc, […], et al., FASEB J 2001, 15:70-78), or hydrogen peroxide (Sigma, St. Louis, Mo.) in a dose and time dependent manner. 293T cells, a clone of 293 (human embryonic kidney fibroblast cells) that expresses the Simian virus 40 large-T antigen, were maintained in DMEM (Invitrogen) with 10% FCS. Cell Viability and Apoptosis detection. Cell viability was assessed by bright-field microscopy using a trypan blue dye (0.4%) exclusion method. The mean survival was determined by examining four different low power fields. Annexin V binding was used to detect apoptotic cells as previously described (Trautmann A, et al., J Allergy Clin Immunol 2001, 108:839-846). Briefly, cells were incubated with 1.0 μg/mL annexin V-FITC and 2.5 μg/mL propidium iodide (BD Biosciences, Palo Alto, Calif.). The stained cells were analyzed with a FACScan (Becton Dickinson, San Jose, Calif.), using an argon ion laser at 488 nm and emission recorded at 520 nm with band pass and short pass filters. Gating was done on the forward angle and right angle light scatter only to exclude debris and cell clumps. […] The RFI was calculated using the ratio of the linearized mean fluorescence of the cell populations, as provided by the CellQuest software (Becton Dickinson, San Jose, Calif.). Apoptotic cells are identified as the Annexin positive-PI negative fraction.

[3] = system: GSH; assay: Intracellular GSH in BET1A cells
Method: Antioxidant assays. Bronchial epithelial cells (BET1A) exposed to 5 µM 2-ME for 30 min to 24 h, or serum of asthmatic individuals, were assayed for glutathione (GSH), glutathione peroxidase (GPx), catalase, and SOD activity. SOD activity was determined by the rate of reduction of cytochrome c, with one unit (U) of SOD activity defined as the amount of SOD required to inhibit the rate of cytochrome c reduction by 50% (Nebot C, et al., Anal Biochem 1993, 214:442-451). The final reaction volume was 3 ml and included 50 mM potassium phosphate buffer, […] cytochrome c, 0.05 mM xanthine, and a 0.1 mM EDTA solution. Xanthine oxidase (Sigma, St Louis, Mo.) was added at a concentration sufficient to induce a 0.020 per minute change in absorbance at 550 nm. GSH levels were measured as previously described (Comhair S A, et al., Am J Respir Crit Care Med 1999, 159:1824-1829).

[4] = system: caspase-3; assay: Caspase-3-like enzyme activity in BET1A cells; conditions: time dependent
Method: Cell Culture. BET1A, a human bronchial epithelial cell line, was cultured in serum-free Lechner and LaVeck medium (LHC-8, Biofluids, Inc., Rockville, Md.) with additives 0.33 nM retinoic acid, […] epinephrine and the antibiotic combination, 1% penicillin/streptomycin, on plates pre-coated with coating media containing 29 μg/ml collagen (Vitrogen: Collagen Corp., Palo Alto, Calif.), 10 μg/ml bovine serum albumin (Biofluids, Rockville, Md.), and 10 μg/ml fibronectin (Calbiochem, La Jolla, Calif.) for 5 min. HAEC obtained by bronchial brushing were cultured in serum-free Lechner and LaVeck media (LHC8) on plates pre-coated with coating media (Reddel R R, et al., Cancer Res 1988, 48:1904-1909). To evaluate oxidant stress and antioxidants in apoptotic events, BET-1A cells were stimulated at 70% confluence with SOD inhibitor, 2-Methoxyoestradiol (2-ME) (Sigma, St Louis, Mo.), or pyrogallol, a superoxide generating compound (J. T. Baker Inc, Phillipsburg, N.J.) (Comhair S A, et al., FASEB J 2001, 15:70-78), or hydrogen peroxide (Sigma, St. Louis, Mo.) in a dose and time dependent manner. […]
Caspase-3-like enzyme activity. Caspase-3-like activity was measured by a […] assay (BD PharMingen, San Diego, Calif.). […] AMC fluorescence is quantified by UV spectrofluorometry with an excitation wavelength of 380 nm and an emission wavelength range of 420-460 nm.

[5] = system: BET1A-cells; assay: Tyrosine nitrated proteins in BET1A cells (anti-nitrotyrosine Western, 2D gel)
Method: Western Blot Assay. Airway epithelial cells freshly obtained by bronchoscopic brushing from asthmatics and healthy controls, or BET1A cells, were suspended in buffer (3 mM dithiothreitol, 5 μg/ml aprotinin, 1 μg/ml leupeptin and pepstatin A, 0.1 mM PMSF, 1% NP40 and 40 mM Hepes pH 7.5) and cell lysate prepared by three cycles of freeze/thaw. Total protein was measured by using the Coomassie protein assay (Pierce, Rockford, Ill.). Whole cell lysate protein was denatured and reduced by treatment with buffer containing 0.05 M Tris (pH 6.8), 1% sodium dodecyl sulfate (SDS), 10% glycerol, 0.00125% bromphenol blue and 0.5% β mercaptoethanol for 3 minutes at 95° C. Total protein was separated by electrophoresis on a 10% SDS-polyacrylamide gel, and then electrophoretically transferred onto nitrocellulose (NitroBind EP4HY315F5, Fisher Scientific, Pittsburgh, Pa.) or Polyvinylidene Difluoride membrane (Pierce, Rockford, Ill.) for 1 h at 4° C. Membranes were incubated with blocking buffer [5% non fat dry milk in TBS (20 mM Tris-HCl (pH 7.0) and 137 mM NaCl) with 0.1% Tween] for 1 h at room temperature to block nonspecific binding and then probed with a primary antibody in blocking buffer overnight at 4° C. […]
Two dimentional gel electrophoresis. […] Total Protein was measured by using Coomassie protein assay (Pierce, Rockfod, Ill.). […]

[6] = system: SOD protein; assay: SOD protein in treated BET1A cells
Method: (§1) Cell Culture. BET1A, a human bronchial epithelial cell line, was cultured in serum-free Lechner and LaVeck medium (LHC-8, Biofluids, Inc., Rockville, Md.) with additives 0.33 nM retinoic acid, […] epinephrine and the antibiotic combination, 1% penicillin/streptomycin, on plates pre-coated with coating media containing 29 μg/ml collagen (Vitrogen: Collagen Corp., Palo Alto, Calif.), 10 μg/ml bovine serum albumin (Biofluids, Rockville, Md.), and 10 μg/ml fibronectin (Calbiochem, La Jolla, Calif.) for 5 min. HAEC obtained by bronchial brushing were cultured in serum-free Lechner and LaVeck media (LHC8) on plates pre-coated with coating media (Reddel R R, et al., Cancer Res 1988, 48:1904-1909). To evaluate oxidant stress and antioxidants in apoptotic events, BET-1A cells were stimulated at 70% confluence with SOD inhibitor, 2-Methoxyoestradiol (2-ME) (Sigma, St Louis, Mo.), or pyrogallol, a superoxide generating compound (J. T. Baker Inc, Phillipsburg, N.J.) (Comhair S A, et al., FASEB J 2001, 15:70-78), or hydrogen peroxide (Sigma, St. Louis, Mo.) in a dose and time dependent manner. 293T cells, a clone of 293 (human embryonic kidney fibroblast cells) that expresses the Simian virus 40 large-T antigen, were maintained in DMEM (Invitrogen) with 10% FCS.
(§2) Western Blot Assay. […] Total protein was measured by using the Coomassie protein assay (Pierce, Rockford, Ill.). […]

[7] = system: BET1A cells; assay: Cell viability by trypan blue exclusion
Method: BET1A, a human bronchial epithelial cell line, was cultured in serum-free Lechner and LaVeck medium (LHC-8, Biofluids, Inc., Rockville, Md.) with additives 0.33 nM retinoic acid, 2.75 mM epinephrine and the antibiotic combination, 1% penicillin/streptomycin, on plates pre-coated with coating media containing 29 μg/ml collagen (Vitrogen: Collagen Corp., Palo Alto, Calif.), 10 μg/ml bovine serum albumin (Biofluids, Rockville, Md.), and 10 μg/ml fibronectin (Calbiochem, La Jolla, Calif.) for 5 min.

[8] = system: BAX; assay: BAX levels by Western blot; conditions: BET1A cells
Method: as §1, §2

[9] = system: MnSOD; assay: MnSOD silencing by siRNA in 293T cells, caspase-3 activity; conditions: 48 h after transfection
Method: Caspase-3-like enzyme activity. Caspase-3-like activity was measured by a […] assay (BD PharMingen, San Diego, Calif.). This assay measures active caspase-3 binding to fluorogenic Ac-DEVD-AMC substrate and its cleavage to release the fluorescent AMC. AMC fluorescence is quantified by UV spectrofluorometry with an excitation wavelength of 380 nm and an emission wavelength range of 420-460 nm.
Transfection of siRNA MnSOD. MnSOD siRNA was synthesized by Ambion (Austin, Tex.). The sense and antisense MnSOD siRNA were 5-GGAACAACAGGCCUUAUUCtt-3 (sense) and 5-GAAUAAGGCCUGUUGUUCCtt-3 (antisense). Silencer™ Negative control #1 siRNA (siRNA control) (Ambion, Austin Tex.) was used as a control. 293T-cells, at 60% confluence in […] plates, were transfected in serum-free medium (DMEM, Invitrogen, Carlsbad Calif.) by using lipofectamine reagent (Invitrogen, Carlsbad Calif.) according to the manufacturer's instructions. For the silencing experiments, cells were transfected with […] of MnSOD siRNA or with 50 nM of Silencer™ Negative Control #1 siRNA. 48 h after transfection, cells were washed, trypsinized and harvested for evaluation of mRNA, protein expression, and caspase-3 activity.

For `Oc1cccc(O)c1O` [pyrogallol], the SOD activity [1] was “loss of SOD activity” and the apoptosis [2] was “increased apoptosis”.
For `COc1cc2c(cc1O)CC[C@@H]1[C@@H]2CC[C@]2(C)[C@@H](O)CC[C@@H]12` [2-ME, 2-Methoxyoestradiol], the “intracellular GSH” value [3] was “rapid depletion of intracellular GSH”, the caspase-3 activity [4] was “significantly increased” and the “blocked the activity of SOD” value ([1]; 5 μM, 3 h, p=0.004) was “up to 86%”. The tyrosine nitrated proteins [5] was “increase in tyrosine nitrated proteins”, the SOD protein [6] was “did not cause a decrease of SOD protein” and the “cell viability (trypan blue)” value [7] was “decrease in cell viability”. For the same compound, the “apoptotic cells (Annexin V staining)” value [2] was “increase in apoptotic cells as early as 17 h” and the BAX levels [8] was “upregulation of BAX levels”.
For `OO` [H202, hydrogen peroxide], the SOD activity [1] was “loss of SOD activity” and the apoptosis [2] was “increased apoptosis”.
For “MnSOD siRNA: siRNA, sense 5-GGAACAACAGGCCUUAUUCtt-3, antisense 5-GAAUAAGGCCUGUUGUUCCtt-3, synthesized by Ambion (sense GGAACAACAGGCCUUAUUCTT; antisense GAAUAAGGCCUGUUGUUCCTT; 3' tt overhangs, chemistry not given here, further chemistry not given here)”, the caspase-3 activation [9] was “caspase-3 activation”.
